Source: patent US20260061042A1, “POLYNUCLEOTIDE COMPOSITIONS AND USES THEREOF” (Pfizer Inc., priority 2024, published 2026)
Positions count from the first letter of the chain named. Like-named read-outs stand apart in the source and are kept apart here.

Assays:
Assay in all cases: PapG Luminex ligand binding at equilibrium
[1] = target: T1, E. coli CFT073 PapG-II lectin domain PapGLD N96S WT v2 (Escherichia coli, UniProt A0A0H2VDP3, N116S); settings: HEPES pH 7.4, 4° C. overnight
T1 sequence (A0A0H2VDP3 21-216 N116S): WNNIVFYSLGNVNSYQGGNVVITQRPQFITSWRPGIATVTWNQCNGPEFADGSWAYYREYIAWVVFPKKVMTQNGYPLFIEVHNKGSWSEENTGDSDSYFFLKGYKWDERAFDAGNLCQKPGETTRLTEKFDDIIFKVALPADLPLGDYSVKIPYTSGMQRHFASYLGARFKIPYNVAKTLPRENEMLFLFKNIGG
Procedure: (§1) To determine the ability of PapGLD mutants to bind the porcine derived globotetraosyl ceramide ligand GalNAc-Gal-Gal-Glc-ceramide (GbO4), a Luminex ligand binding assay was developed. Surfactant Protein-A (SP-A) was coupled to the surface of MagPlex beads by EDC/NHS, to capture the lipid tail of the globotetraosyl ceramide. The Globotetraosyl ceramide/SP-A beads were incubated with an eight-point threefold titration of PapG in a 96 well flat bottom white plate with final volume of 100 microliters of 50 mM HEPES PH 7.4, 10 mM NaCl, 0.0005% Tween 20 shaking at 300 rpm, 4° C. overnight. After 20-24 hours the ligand binding plates were read on a FlexMap 3D plate reader for measurement of well-bead region specific MFI. Ligand binding equilibrium dissociation constants (Kd) were calculated assuming one site specific binding and interpolated using non-linear curve fitting (GraphPad Prism) as the ligand concentration needed to achieve half-maximal binding. The Luminex derived apparent Kd values are based on approximately fifty bead counts per assay sample.
(§2) To determine Luminex ligand binding affinities of PapG mutants for the synthetic globoside ligand Gal-Glc-phenoxy-octyl-amine (GbO2Mpo), a Luminex ligand binding assay was developed based on the direct coupling of the amine reactive globoside ligand to the EDC/NHS activated carboxylic surface of MagPlex beads. Synthesis of GbO2Mpo ligand with an octyl amine linker (for coupling to beads) was performed via methods described previously. The GbO2Mpo beads were incubated with an 8-point, threefold titration of PapG in a 96-well flat bottom white plate with final volume of 100 μl of 50 mM HEPES pH 7.4, 10 mM NaCl, 0.0005% Tween 20 shaking at 300 rpm, 4° C. overnight. After 20-24 hours the ligand binding plates were read on a FlexMap 3D plate reader for measurement of well-bead region specific MFI.
(§3) Binding of PapG proteins to GbO2 or GbO4 ligands was evaluated using a Luminex platform wherein ligands were coupled to MagPlex beads via surfactant protein A (for […]) or directly using […] conjugation (for […]). This assay was used to rank order binding affinities of the mutants, reported as Kd values interpolated from protein antigen titration curves (Table 7).

[2] = target: T2, E. coli CFT073 full-length donor strand complemented PapG-II, PapGDSF variant N96S N242S N286S K172A, SEQ ID NO: 26 (Escherichia coli, UniProt A0A0H2VAQ6, K192A/N116S/N262S/N306S); settings: for Kd: HEPES pH 7.4, 4° C. overnight
T2 construct: mouse IgGK signal peptide, C-terminal 8xHis, ExpiCHO, purified
T2 sequence (A0A0H2VAQ6 with tags, fused parts or gaps N116S/K192A/N262S/N306S): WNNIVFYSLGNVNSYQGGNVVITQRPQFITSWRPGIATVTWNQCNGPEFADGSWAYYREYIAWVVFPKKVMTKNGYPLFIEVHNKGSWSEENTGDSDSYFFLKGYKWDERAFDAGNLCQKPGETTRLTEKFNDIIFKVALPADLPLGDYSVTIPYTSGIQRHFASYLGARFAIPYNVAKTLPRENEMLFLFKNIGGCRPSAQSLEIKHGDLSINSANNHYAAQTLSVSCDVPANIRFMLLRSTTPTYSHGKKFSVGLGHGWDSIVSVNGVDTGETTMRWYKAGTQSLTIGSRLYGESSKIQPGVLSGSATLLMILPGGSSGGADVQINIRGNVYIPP
Procedure: as §1, §2, §3

[3] = target: T3, E. coli CFT073 PapG-II lectin domain PapGLD variant N96S G86A, SEQ ID NO: 14 (Escherichia coli, UniProt A0A0H2VAQ6, G106A/N116S); settings: HEPES pH 7.4, 4° C. overnight
T3 sequence (A0A0H2VAQ6 with tags, fused parts or gaps G106A/N116S): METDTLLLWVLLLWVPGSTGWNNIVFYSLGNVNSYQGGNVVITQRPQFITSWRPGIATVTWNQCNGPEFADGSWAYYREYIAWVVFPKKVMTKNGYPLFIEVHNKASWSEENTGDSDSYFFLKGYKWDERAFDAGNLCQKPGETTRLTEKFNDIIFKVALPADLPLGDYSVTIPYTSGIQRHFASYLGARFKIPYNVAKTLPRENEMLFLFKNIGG
Procedure: as §1, §2, §3

[4] = target: T4, E. coli CFT073 PapG-II lectin domain PapGLD variant N96S G18A, SEQ ID NO: 18 (Escherichia coli, UniProt A0A0H2VAQ6, G38A/N116S); settings: HEPES pH 7.4, 4° C. overnight
T4 sequence (A0A0H2VAQ6 with tags, fused parts or gaps G38A/N116S): T3 sequence (A0A0H2VAQ6 with tags, fused parts or gaps G106A/N116S) with G38A, A106G
Procedure: as §1, §2, §3

[5] = target: T5, E. coli CFT073 full-length donor strand complemented PapG-II, PapGDSF N96S N242S N286S (Escherichia coli, UniProt A0A0H2VAQ6, N116S/N262S/N306S); settings: HEPES pH 7.4, 4° C. overnight
T5 construct: mouse IgGK signal peptide, C-terminal 8xHis, ExpiCHO, purified
T5 sequence (A0A0H2VAQ6 with tags, fused parts or gaps N116S/N262S/N306S): T2 sequence (A0A0H2VAQ6 with tags, fused parts or gaps N116S/K192A/N262S/N306S) with A172K
Procedure: as §1, §2, §3

[6] = GbO2Mpo beads, read-out: Kd (GbO2)
[7] = GbO4 beads, read-out: Kd (GbO4)

Substance | Kd [1, 6] [nM] | binding to GbO2 (in words) [2] | Kd [2, 6] [nM] | Kd [3, 6] [nM] | Kd [4, 6] [nM] | Kd [5, 6] [nM] | Kd [1, 7] [nM] | binding to GbO4 (in words) [2] | Kd [2, 7] [nM] | Kd [3, 7] [nM] | Kd [4, 7] [nM] | Kd [5, 7] [nM]
Gal-Glc-phenoxy-octyl-amine [GbO2] | 1.1 | no binding was detected | > 300 | 1.3 | 1.8 | 2.2 | – | – | – | – | – | –
GalNAc-Gal-Gal-Glc-ceramide [GbO4] | – | – | – | – | – | – | 29 | no binding was detected | > 300 | 15 | > 10 | 3
